Values quoted from earlier work as cited in patent US20230064685A1, “METHODS AND COMPOSITIONS TO INHIBIT SYMPTOMS ASSOCIATED WITH VEISALGIA” (SEN-JAM PHARMACEUTICAL LLC, priority 2015, published 2023).

Columns and labels:
[1] = test system: hangover symptom of thirst; details: each drug alone; general statement, no test described
[2] = test system: alcohol hangover; details: randomized controlled trials reviewed by Pittler et al. 2005

Structure (SMILES)	effect or side effect of reducing thirst [1]	intergroup differences for overall symptom scores and individual symptoms [2]
CC(C)(C(=O)O)c1ccc(C(O)CCCN2CCC(C(O)(c3ccccc3)c3ccccc3)CC2)cc1 (racemic) [fexofenadine, (±)-4-[1 hydroxy-4-[4-(hydroxydiphenylmethyl)-1-piperidinyl]-butyl]-α, α-dimethyl benzeneacetic acid]	neither naproxen nor fexofenadine, alone, has shown any effect or side effect of reducing thirst	–
COc1ccc2cc(C(C)C(=O)O)ccc2c1 (stereo not drawn) [naproxen, 6-methoxy-α-methyl-2-naphthaleneacetic acid]	neither naproxen nor fexofenadine, alone, has shown any effect or side effect of reducing thirst	–
Cc1c(Cl)cccc1Nc1ccccc1C(=O)O [tolfenamic acid]	–	Significant intergroup differences
CCCCC/C=C\C/C=C\C/C=C\CCCCC(=O)O [γ linolenic acid from B officinalis, γ linolenic acid]	–	Significant intergroup differences
